In patent US20230372334A1, “USE OF AN ERK INHIBITOR FOR THE TREATMENT OF MYELOFIBROSIS” (Novartis AG, priority 2020, published 2023):
Entries after “also recorded” stand apart in the source; their conditions may differ.

What was measured:
[1] = test system: Ba/F3 cell line stably expressing erythropoietin receptor (EpoR) and Jak2V617F; assay: Antiproliferative activity, CellTiter-Glo viability assay at 48h, Ba/F3 EpoR Jak2V617F; type: cell-based, murine; details: EpoR Jak2V617F mutant Ba/F3 cells; FIG. 6
Method: (§1) To assess anti-proliferative effects of inhibitors, cells were seeded at 10′000/200 ul with increasing inhibitor concentrations in triplicate. Proliferation was assessed at 48h using the CellTiter-Glo viability assay (Promega) and normalized to cell growth in medium with equivalent volume of DMSO.

[2] = test system: Ba/F3 cell line stably expressing erythropoietin receptor (EpoR) and wild-type JAK2; assay: Antiproliferative activity, CellTiter-Glo viability assay at 48h, Ba/F3 EpoR wild-type JAK2; type: cell-based, murine; details: EpoR Jak2 wild type Ba/F3 cells; FIG. 6
Method: as §1

[3] = test system: ERK downstream targets RSK3 and DUSP6; assay: ERK signaling in splenocytes of Jak2V617F mice by Western blot; type: in vivo, mouse; details: FIG. 2A
Jak2V617F mice = assay: Jak2V617F knock-in mouse model (polycythemia vera phenotype), competitive BM transplant; type: in vivo; details: for reduction of hematocrit: Example 4, FIG. 5B
MPLW515L mice = assay: MPLW515L mutant MPN mouse model; type: in vivo; details: oral gavage, FIG. 2D
[4] = test system: JAK2V617F PV/MF mouse model; assay: JAK2V617F PV/MF mouse model, 14 consecutive days oral dosing (Example 3); details: ruxolitinib 60 mg/kg BID, Compound A 75 mg/kg QD, 14 days; for body weight change: FIG. 4A; for bone marrow cellularity / bone marrow toxicity: FIG. 4B; for WBC count: FIG. 4C; for platelet count: FIG. 4D; for elevated hematocrit / splenomegaly: vs vehicle; for elevated hematocrit: FIG. 3A; for splenomegaly: FIG. 3B
Description: For treatment studies, bone marrow (BM) from primary Jak2V617F Vav-Cre CD45.2 mice was mixed 1:1 with Jak2 wild-type CD45.1 BM and transplanted into lethally irradiated CD45.1 recipients. Development of the MPN phenotype was confirmed by peripheral blood counts 2 months after BM transplantation. Mice were randomized to treatment groups according to blood counts and treated by oral gavage for 1-4 weeks.

[5] = test system: CD34+ peripheral blood mononuclear cells (PBMCs) of a MF patient; assay: Colony growth from CD34+ PBMCs of a MF patient; type: cell-based, human; details: FIG. 5A

In the case of CNC[C@@H](NC(=O)c1ccc(-c2nc([C@H]3CC[C@H](O)[C@@H](F)C3)cnc2N)cc1F)c1cc(F)cc(Br)c1 [Compound A, 4-(3-amino-6-((1S,3S,4S)-3-fluoro-4-hydroxycyclohexyl)pyrazin-2-yl)-N-((S)-1-(3-bromo-5-fluorophenyl)-2-(methylamino)ethyl)-2-fluorobenzamide], the “suppression of proliferation (decrease in IC50 value)” value [1] is reported as “ruxolitinib was superior to that of Compound A”, the “suppression of proliferation (decrease in IC50 value)” value [2] is reported as “ruxolitinib was superior to that of Compound A” and the “activation of ERK downstream targets RSK3 and DUSP6” value [3] is reported as “inhibited activation”. The reduction of hematocrit (Jak2V617F mice) was “comparable reduction”, the “polyglobulia or polycythemia (hematocrit levels)” value (Jak2V617F mice; oral gavage, FIG. 2B) was “potently corrected” and the “splenomegaly (spleen weight)” value (Jak2V617F mice; oral gavage, FIG. 2C) was “potently corrected”. The “correction of leukocytosis (WBC count)” value (MPLW515L mice) was “ruxolitinib was superior to that of Compound A”, the polycythemia [4] was “significantly normalizes” and the tolerability [4] was “well tolerated”. The body weight change [4] was “lack of body weight loss”, the “bone marrow cellularity / bone marrow toxicity” value [4] was “absence of bone marrow toxicity” and the WBC count [4] was “normal”. For the same compound, the platelet count [4] was “normal; also recorded: absence of thrombocytopenia”, the elevated hematocrit [4] was “significantly normalized; also recorded: significantly reduced; also recorded: reduces” and the splenomegaly [4] was “significantly normalizes; also recorded: significantly reduced”. The “growth of colonies derived from CD34+ PBMCs” value [5] was “comparably suppressed growth”.
For N#CC[C@H](C1CCCC1)n1cc(-c2ncnc3[nH]ccc23)cn1 [ruxolitinib, (R)-3-(4-(7H-pyrrolo[2,3-d]pyrimidin-4-yl)-1H-pyrazol-1-yl)-3-cyclopentylpropanenitrile, reference compound], the reduction of hematocrit (Jak2V617F mice) was “comparable reduction”, the “correction of leukocytosis (WBC count)” value (MPLW515L mice) was “superior to that of Compound A” and the polycythemia [4] was “significantly normalized”. The tolerability [4] was “well tolerated”, the body weight change [4] was “lack of body weight loss” and the “bone marrow cellularity / bone marrow toxicity” value [4] was “absence of bone marrow toxicity”. The WBC count [4] was “normal”, the platelet count [4] was “normal; also recorded: absence of thrombocytopenia” and the elevated hematocrit [4] was “significantly normalized”. The elevated hematocrit ([4]; listed as Ruxolitinib) was “significantly reduced”, the splenomegaly [4] was “significantly normalized” and the splenomegaly ([4]; listed as Ruxolitinib) was “significantly reduced”. For the same compound, the “growth of colonies derived from CD34+ PBMCs” value [5] was “comparably suppressed growth”.
